Assay [1] concerns wistar rats injected with papain. Kind of assay: Test IV: walking pain score from sole marks. The format is in vivo. The settings on record: score 0-4, papain model, 28 days, daily dosage 126 mg/kg. On the procedure: Male wistar rats are randomly divided into a control group, a model group and an experimental group. Each group includes 10 rats. The rats are injected with papain for molding. The rats are administered for 28 days at the same time of molding. Before the rats are put to death, the left and right soles of the rats are evenly imprinted with printing ink of the same color and the rats walk by 0.4 m on a self-made semi-closed rat walking passage. The sole marks are photographed. Three persons independently score the walking pain based on the sole photos according to the following scoring standard for walking pain and measure the walking pain (when the limbs have a pain reaction, the rats move with the minimum contact area of the paws to reduce the pressure on the affected limbs; and when the left and right feet are uneven in stress and the gait is changed, the colors of the soles are different). The sole is divided into four regions: if one region of the left sole is darker than the right sole, the score is 1; if two regions are darker, the score is 2; and the score is added in sequence (0-4 scores). […] The rats administered with the product can alleviate the arthritis to a certain extent, and can walk slightly normally, so as to reflect the degree of arthritis according to the walking scores.

In assay [2] the test system is IL-1β. The assay is described as follows: Test I: IL-1β content in serum of rats injected with papain, administered 28 days. The settings on record: rat serum, papain model, daily dosage 126 mg/kg. In kind it is in vivo, wistar rats. Here is the method: Male wistar rats are randomly divided into a control group, a model group and an experimental group. Each group includes 10 rats. The rats are injected with papain for molding. The rats are administered for 28 days at the same time of molding. Before the rats are put to death, blood is taken from the abdominal vein and centrifuged to obtain serum. The IL-1β content is detected. Specific results are shown in Table 1: The blank group includes normal rats for arthritis modeling. The model group includes rats not administered after modeling. The experimental administration group administers the product of the present invention to the rats. The glucosamine sulfate control group administers glucosamine to the rats. The glucosamine+chondroitin sulfate+collagen control group administers glucosamine+chondroitin sulfate+collagen to the rats. IL-1β is an inflammatory factor in the serum. Normal rats contain the lowest levels of inflammatory factors, and the rats with arthritis but not administered contain the highest levels of inflammatory factors. If different products are administered to rats, the degree of arthritis is alleviated to a certain extent and the levels of inflammatory factors in the rats are reduced to be lower than that of the highest model group, but higher than normal rats.

Assay [3] relates to IL-6. The assay is described as follows: Test I: IL-6 content in serum of rats, same administration time and same dosage. In kind it is in vivo, wistar rats. The settings on record: rat serum, daily dosage 125 mg/kg. Here is the method:
Male wistar rats are randomly divided into a control group, a model group and an experimental group. Each group includes 10 rats. The rats are injected with papain for molding. The rats are administered for 28 days at the same time of molding. Before the rats are put to death, blood is taken from the abdominal vein and centrifuged to obtain serum. The IL-1β content is detected. Specific results are shown in Table 1: In addition, to verify the technical solution of the present invention and small daily dosage of the single glucosamine, the inventor respectively experiments the male wistar rats in the same administration time and under the same administration dosage, and detects the IL-6 content in the serum.

Assay [4] deals with wistar rats injected with papain. The assay is described as follows: Test II: tenderness thresholds at modeling joints, measured with a tenderness meter. The settings on record: papain model, 28 days, daily dosage 126 mg/kg. The format is in vivo. Here is the method: Male wistar rats are randomly divided into a control group, a model group and an experimental group. Each group includes 10 rats. The rats are injected with papain for molding. The rats are administered for 28 days at the same time of molding. Before the rats are put to death, the tenderness thresholds at modeling joints are measured with a tenderness meter.

For `N[C@H]1C(O)O[C@H](CO)[C@@H](O)[C@@H]1O.O=S(=O)(O)O` (some centres unmarked) [Glucosamine sulfate control group 1, Glucosamine sulfate], the “Scores of walking pain” value in assay [1] turned out to be 0.5 ± 0.2303. The compound further gave an IL-1β content in assay [2] of 9.456 ± 1.657 ng/L. Also, the IL-6 content in assay [3] (listed as Glucosamine sulfate control group) was 146.19 ± 18.15 ng/L; in assay [3] (listed as glucosamine sulfate control group), “not obviously lower than the model group”. For the same compound, the Tenderness thresholds in assay [4] is given as 5.607 ± 0.2602 newton.

Source of the values: patent US11331339B2, “Compound composition with function of promoting bone and joint health and application thereof” (Chenland Nutritionals, Inc., priority 2019, dated 2022).
